The values below come from article doi:10.1101/2024.10.18.619128v2 (biorxiv, 2024).

One assay addresses ALDH3A1 (Homo sapiens, UniProt P30838). The experiment in a line: fluorimetric NADPH assay, global inhibition fit. The assay is classed as biochemical. The following applies: non-competitive; 4-nitrobenzaldehyde substrate, 1 mM NADP+, 37 °C, pH 7.2.
For the next assay, the system named is MCF7. The experiment in a line: cells. The following applies: Homo sapiens, MCF7, 48 h.
The next assay concerns HS578T. The experiment in a line: cells. The following applies: Homo sapiens, Hs-578T, 48 h, read-out: III / CEY1410.
In a further assay the test system is MDAMB436. The experiment in a line: cells. Conditions: Homo sapiens, MDA-MB-436, 48 h.
Another assay relates to DU4475. The experiment in a line: cells. Conditions: Homo sapiens, DU-4475, 48 h, read-out: III / CEY1410.
Another assay has as its system HCC1419. The experiment in a line: cells. The following applies: Homo sapiens, HCC1419, 48 h.
Another assay has as its system HCC1143. The experiment in a line: cells. Conditions: Homo sapiens, HCC1143, 48 h, read-out: III / CEY1410.
A further assay concerns SKBR3. The experiment in a line: cells. The following applies: Homo sapiens, SK-BR-3, 48 h, read-out: III / CEY1410.
The test system of a further assay is MDAMB468. Description: cells. The following applies: Homo sapiens, MDA-MB-468, 48 h, read-out: III / CEY1410.
The test system of a further assay is T47D. The experiment in a line: cells. Conditions: Homo sapiens, T47D, 48 h, read-out: III / CEY1410.
The next assay relates to MDAMB361. Description: cells. Conditions: Homo sapiens, MDA-MB-361, 48 h, read-out: III / CEY1410.
For another assay, the system named is HCC1569. Description: cells. The following applies: Homo sapiens, HCC1569, 48 h.
The next assay deals with MDAMB231. Description: cells. The following applies: Homo sapiens, MDA-MB-231, 48 h, read-out: III / CEY1410.
The next assay relates to HCC70. Description: cells. The following applies: Homo sapiens, HCC70, 48 h, read-out: III / CEY1410.
The next assay has as its system HCC1937. Description: cells. Conditions: Homo sapiens, HCC1937, 48 h, read-out: III / CEY1410.
For the next assay, the system named is MDAMB453. The experiment in a line: cells. The following applies: Homo sapiens, MDA-MB-453, 48 h, read-out: III / CEY1410.
The test system of a further assay is HCC1954. The experiment in a line: cells. The following applies: Homo sapiens, HCC1954, 48 h.
The test system of a further assay is BT474. The experiment in a line: cells. Conditions: Homo sapiens, BT-474, 48 h.
In another assay the test system is BT20. Description: cells. Conditions: Homo sapiens, BT-20, 48 h, read-out: III / CEY1410.
In a further assay the test system is MAXFTN 508. Description: cells. Conditions: read-out: DIMATE.
The next assay relates to MAXFHER 2690. The experiment in a line: cells. Conditions: read-out: DIMATE.
The next assay deals with MAXFHER 4035. Description: cells. The following applies: read-out: DIMATE.
The next assay has as its system MAXFTN 401. Description: cells. Conditions: read-out: DIMATE.
The test system of the next assay is MAXFHER BR64. The experiment in a line: cells. Conditions: read-out: DIMATE.
The test system of a further assay is MAXFHER 1162. The experiment in a line: cells. Conditions: read-out: DIMATE.
Another assay concerns MAXFTN 449. Description: cells. The following applies: read-out: DIMATE.
For another assay, the system named is MAXFTN 2990. Description: cells. The following applies: read-out: DIMATE.
In the next assay the test system is MAXFTN 1384. Description: cells. Conditions: read-out: DIMATE.
A further assay has as its system MAXFTN BR120. The experiment in a line: cells. Conditions: read-out: DIMATE.
The next assay deals with ALDH1A3 (Homo sapiens, UniProt P47895). Description: HPLC retinaldehyde dehydrogenase assay. The assay is classed as biochemical.
The next assay has as its target ALDH1A2 (Homo sapiens, UniProt O94788). The experiment in a line: HPLC retinaldehyde dehydrogenase assay. The assay is classed as biochemical.
The target in the next assay is ALDH1A1 (Homo sapiens, UniProt P00352). Description: HPLC retinaldehyde dehydrogenase assay. It is filed as biochemical.

Broadly, the Ki is the dissociation constant of the complex between target and ligand, obtained from inhibition or displacement. For orientation: IC50 means the concentration needed to halve the response being measured.

Like-named read-outs stand apart in the source and are kept apart here. A value given as a limit tells only on which side of the number the result lay.

Chain of ALDH1A2 (O94788 whole entry): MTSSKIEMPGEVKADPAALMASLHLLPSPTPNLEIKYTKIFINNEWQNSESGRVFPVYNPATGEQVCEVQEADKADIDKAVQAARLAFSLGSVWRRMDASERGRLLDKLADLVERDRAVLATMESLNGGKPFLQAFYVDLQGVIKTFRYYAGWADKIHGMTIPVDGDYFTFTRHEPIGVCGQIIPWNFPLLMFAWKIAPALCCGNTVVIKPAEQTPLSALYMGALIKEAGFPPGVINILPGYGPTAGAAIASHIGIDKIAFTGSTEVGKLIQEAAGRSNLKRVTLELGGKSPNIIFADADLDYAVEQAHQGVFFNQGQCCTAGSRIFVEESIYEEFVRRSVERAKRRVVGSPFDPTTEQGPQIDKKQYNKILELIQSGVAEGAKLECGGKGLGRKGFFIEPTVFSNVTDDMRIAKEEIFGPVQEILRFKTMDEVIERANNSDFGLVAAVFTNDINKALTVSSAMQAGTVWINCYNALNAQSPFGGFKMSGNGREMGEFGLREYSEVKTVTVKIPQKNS
Chain of ALDH1A1 (P00352 whole entry): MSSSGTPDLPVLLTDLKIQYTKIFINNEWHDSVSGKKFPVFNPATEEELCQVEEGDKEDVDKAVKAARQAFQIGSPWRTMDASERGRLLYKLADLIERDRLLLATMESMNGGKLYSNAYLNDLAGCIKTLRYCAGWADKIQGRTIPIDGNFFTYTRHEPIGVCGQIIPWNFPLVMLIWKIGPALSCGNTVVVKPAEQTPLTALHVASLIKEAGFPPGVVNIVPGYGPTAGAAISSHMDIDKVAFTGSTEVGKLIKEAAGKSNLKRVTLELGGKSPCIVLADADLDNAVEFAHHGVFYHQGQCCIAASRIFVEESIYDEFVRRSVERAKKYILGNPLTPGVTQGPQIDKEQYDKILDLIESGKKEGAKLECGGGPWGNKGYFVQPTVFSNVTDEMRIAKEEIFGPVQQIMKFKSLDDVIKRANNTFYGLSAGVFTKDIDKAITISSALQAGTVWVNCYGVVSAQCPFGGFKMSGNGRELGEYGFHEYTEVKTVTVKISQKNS
Chain of ALDH1A3 (P47895 whole entry): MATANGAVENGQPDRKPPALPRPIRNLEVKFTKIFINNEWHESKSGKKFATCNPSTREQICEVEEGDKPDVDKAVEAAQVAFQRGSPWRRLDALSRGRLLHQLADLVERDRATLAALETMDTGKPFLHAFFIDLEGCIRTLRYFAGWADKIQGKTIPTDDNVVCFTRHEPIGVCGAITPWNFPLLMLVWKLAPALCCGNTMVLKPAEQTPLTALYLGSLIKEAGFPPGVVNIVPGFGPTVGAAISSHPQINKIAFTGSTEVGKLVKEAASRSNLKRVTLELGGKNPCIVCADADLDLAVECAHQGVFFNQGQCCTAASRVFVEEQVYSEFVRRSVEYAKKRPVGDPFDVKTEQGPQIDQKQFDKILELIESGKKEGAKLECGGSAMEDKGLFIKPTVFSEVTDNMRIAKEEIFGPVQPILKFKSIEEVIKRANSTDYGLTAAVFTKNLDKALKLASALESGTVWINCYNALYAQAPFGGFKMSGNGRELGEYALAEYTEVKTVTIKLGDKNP
Chain of ALDH3A1 (P30838 whole entry): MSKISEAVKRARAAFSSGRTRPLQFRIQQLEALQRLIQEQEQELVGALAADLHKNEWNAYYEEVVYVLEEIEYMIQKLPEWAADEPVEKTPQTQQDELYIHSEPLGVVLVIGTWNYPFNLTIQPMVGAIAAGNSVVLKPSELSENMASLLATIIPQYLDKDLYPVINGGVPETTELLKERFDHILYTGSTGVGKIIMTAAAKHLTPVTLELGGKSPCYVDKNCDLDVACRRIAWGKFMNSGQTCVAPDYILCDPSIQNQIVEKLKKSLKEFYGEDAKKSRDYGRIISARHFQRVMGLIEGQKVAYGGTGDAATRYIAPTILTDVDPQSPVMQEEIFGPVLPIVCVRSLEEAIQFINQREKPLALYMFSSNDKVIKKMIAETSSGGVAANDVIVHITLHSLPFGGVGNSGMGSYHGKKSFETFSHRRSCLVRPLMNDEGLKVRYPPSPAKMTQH

As to ABD0171, the Ki at ALDH3A1 stood at 233 ± 16 µM.
Take `CN(C)C(C)(C)C#CC(=O)O` [CEY1410]: the GI50 in the assay on MCF7 (read-out: III / CEY1410), in the assay on HS578T, in the assay with MDAMB436 (read-out: III / CEY1410), in the assay with DU4475, in the assay with HCC1419 (read-out: III / CEY1410) and in the assay with HCC1143 was greater than 30 µM in each case. Besides, the GI50 with SKBR3, with MDAMB468, in the assay with T47D, in the assay on MDAMB361, with HCC1569 (read-out: III / CEY1410) and with MDAMB231 was greater than 30 µM in each case. For the same molecule, the GI50 in the assay on HCC70, in the assay on HCC1937, in the assay on MDAMB453, in the assay with HCC1954 (read-out: III / CEY1410), in the assay on BT474 (read-out: III / CEY1410) and with BT20 was greater than 30 µM each time.
Take `CSC(=O)C#CC(C)(C)N(C)C` [DIMATE, 4-dimethylamino-4-methyl-pent-2-ynthioic acid-S-methyl ester]: the GI50 with MAXFTN 508 was 1.11 µM; with MAXFHER 2690 it was 2.65 µM; in the assay with MAXFHER 4035 it was 2.55 µM; with MAXFTN 401 it was 0.52 µM; in the assay on MAXFHER BR64, 1.05 µM; with MAXFHER 1162, 1.42 µM. Besides, the GI50 came out at 0.46 µM in the assay on MAXFTN 449; 4.29 µM with MAXFTN 2990; 7.32 µM in the assay with MAXFTN 1384; 4.06 µM with MAXFTN BR120; 10.4 µM in the assay on MCF7 (read-out: I / DIMATE); 3.9 µM with MDAMB436 (read-out: I / DIMATE). The GI50 with HCC1419 (read-out: I / DIMATE) was 7.9 µM; with HCC1569 (read-out: I / DIMATE), 5 µM; in the assay with HCC1954 (read-out: I / DIMATE), greater than 30 µM; in the assay with BT474 (read-out: I / DIMATE), 3 µM. For the same molecule, the 50% inhibitory concentration (IC50) amounted to 5.7 ± 0.5 µM against ALDH1A3, 6.4 ± 0.9 µM against ALDH1A2 and 25 ± 2 µM on ALDH1A1.
